From PubChem BioAssay (NCI)
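How tested: cells in 96-well plates exposed to compound for 48 hours at five concentrations. Abbreviation: GI50, concentration required for 50% inhibition of growth. Definition used: TGI = concentration required for complete inhibition of growth.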

What was measured:
Experiment in all cases: DTP human tumour cell line panel, 48 h
ACHN renal = tested on: ACHN renal
COLO 205 colon = tested on: COLO 205 colon
EKVX NSCLC = tested on: EKVX NSCLC
HCC-2998 colon = tested on: HCC-2998 colon
MALME-3M melanoma = tested on: MALME-3M melanoma
MCF7 breast = tested on: MCF7 breast
NCI-H460 lung = tested on: NCI-H460 lung
OVCAR-3 ovarian = tested on: OVCAR-3 ovarian
SK-MEL-28 melanoma = tested on: SK-MEL-28 melanoma
U251 CNS = tested on: U251 CNS

CCN(CC)CCCCCCCNc1c2ccc(Cl)cc2nc2ccc(OC)cc12
GI50 (ACHN renal): 0.829 µM
TGI (ACHN renal): 4.93 µM
GI50 (COLO 205 colon): 1.09 µM
TGI (COLO 205 colon): 2.48 µM
GI50 (EKVX NSCLC): 1.51 µM
TGI (EKVX NSCLC): 4.99 µM
GI50 (HCC-2998 colon): 1.76 µM
TGI (HCC-2998 colon): 3.22 µM
GI50 (MALME-3M melanoma): 2.05 µM
TGI (MALME-3M melanoma): 4.1 µM
GI50 (MCF7 breast): 0.356 µM
TGI (MCF7 breast): 1.59 µM
GI50 (NCI-H460 lung): 0.416 µM
TGI (NCI-H460 lung): 1.67 µM
GI50 (OVCAR-3 ovarian): 1.55 µM
TGI (OVCAR-3 ovarian): 3.69 µM
GI50 (SK-MEL-28 melanoma): 1.91 µM
TGI (SK-MEL-28 melanoma): 3.64 µM
GI50 (U251 CNS): 0.706 µM
TGI (U251 CNS): 1.93 µM

O=C(Nc1ccc(Cl)cc1)c1cc2ccccc2cc1O
GI50 (ACHN renal): 3.34 µM
TGI (ACHN renal): > 100 µM
GI50 (COLO 205 colon): 3.22 µM
TGI (COLO 205 colon): 18.7 µM
GI50 (EKVX NSCLC): 2.98 µM
TGI (EKVX NSCLC): > 100 µM
GI50 (HCC-2998 colon): 2.55 µM
TGI (HCC-2998 colon): 7.65 µM
GI50 (MALME-3M melanoma): 1.67 µM
TGI (MALME-3M melanoma): 95.6 µM
GI50 (MCF7 breast): 1.9 µM
TGI (MCF7 breast): > 100 µM
GI50 (NCI-H460 lung): 2.67 µM
TGI (NCI-H460 lung): > 100 µM
GI50 (OVCAR-3 ovarian): 2.01 µM
TGI (OVCAR-3 ovarian): 6.67 µM
GI50 (SK-MEL-28 melanoma): 7.62 µM
TGI (SK-MEL-28 melanoma): > 100 µM
GI50 (U251 CNS): 2.54 µM
TGI (U251 CNS): 29.5 µM

CN(C)CCCNC(=O)c1cc(NC(=O)c2cc(NC(=O)c3cc(NC(=O)CCc4c[nH]c5ccccc45)cn3C)cn2C)cn1C
GI50 (ACHN renal): > 100 µM
TGI (ACHN renal): > 100 µM
GI50 (COLO 205 colon): > 100 µM
TGI (COLO 205 colon): > 100 µM
GI50 (EKVX NSCLC): > 100 µM
TGI (EKVX NSCLC): > 100 µM
GI50 (HCC-2998 colon): > 100 µM
TGI (HCC-2998 colon): > 100 µM
GI50 (MALME-3M melanoma): 30.4 µM
TGI (MALME-3M melanoma): 88.7 µM
GI50 (MCF7 breast): 56.8 µM
TGI (MCF7 breast): > 100 µM
GI50 (NCI-H460 lung): > 100 µM
TGI (NCI-H460 lung): > 100 µM
GI50 (OVCAR-3 ovarian): > 100 µM
TGI (OVCAR-3 ovarian): > 100 µM
GI50 (SK-MEL-28 melanoma): 2.24 µM
TGI (SK-MEL-28 melanoma): > 100 µM
GI50 (U251 CNS): > 100 µM
TGI (U251 CNS): > 100 µM

C[C@]12CCC(=O)C(O)=C1CC[C@@H]1[C@@H]2CC[C@]2(C)C(=O)CC[C@@H]12
TGI (ACHN renal): > 100 µM
TGI (COLO 205 colon): > 100 µM
TGI (EKVX NSCLC): > 100 µM
TGI (HCC-2998 colon): > 100 µM
TGI (MALME-3M melanoma): > 100 µM
TGI (MCF7 breast): > 100 µM
TGI (NCI-H460 lung): > 100 µM
TGI (OVCAR-3 ovarian): > 100 µM
TGI (SK-MEL-28 melanoma): > 100 µM
TGI (U251 CNS): > 100 µM

COc1ccc(/C=C\c2cc(OC)c(OC)c(OC)c2)cc1OCC(=O)Nc1nc2ccc(C(F)(F)F)cc2s1
GI50 (ACHN renal): 4.83 µM
TGI (ACHN renal): > 100 µM
GI50 (COLO 205 colon): 17.1 µM
TGI (COLO 205 colon): 68 µM
GI50 (EKVX NSCLC): 6.25 µM
TGI (EKVX NSCLC): > 100 µM
GI50 (HCC-2998 colon): 4.23 µM
TGI (HCC-2998 colon): > 100 µM
GI50 (MALME-3M melanoma): > 100 µM
TGI (MALME-3M melanoma): > 100 µM
GI50 (MCF7 breast): 3.16 µM
TGI (MCF7 breast): 65.1 µM
GI50 (NCI-H460 lung): 3.55 µM
TGI (NCI-H460 lung): > 100 µM
GI50 (OVCAR-3 ovarian): 2.11 µM
TGI (OVCAR-3 ovarian): 4.51 µM
GI50 (SK-MEL-28 melanoma): 3 µM
TGI (SK-MEL-28 melanoma): > 100 µM
GI50 (U251 CNS): 3.67 µM
TGI (U251 CNS): > 100 µM

CCOC(CN=c1nc(N(C)C)ss1)OCC
TGI (ACHN renal): 58.7 µM
TGI (COLO 205 colon): 7.28 µM
TGI (EKVX NSCLC): > 80 µM
TGI (HCC-2998 colon): > 100 µM
TGI (MALME-3M melanoma): 52.9 µM
TGI (MCF7 breast): > 65.3 µM
TGI (NCI-H460 lung): > 94.4 µM
TGI (OVCAR-3 ovarian): > 46.4 µM
TGI (SK-MEL-28 melanoma): 58.9 µM
TGI (U251 CNS): 29.9 µM

Cc1ccc2c(N)c(C(=O)N[C@H]3CCc4cc(N5CC6CCC(C5)N6)ccc4C3)sc2n1
GI50 (ACHN renal): 0.158 µM
TGI (ACHN renal): 2.01 µM
GI50 (COLO 205 colon): 0.383 µM
TGI (COLO 205 colon): 1.49 µM
GI50 (EKVX NSCLC): 0.572 µM
TGI (EKVX NSCLC): 2.34 µM
GI50 (HCC-2998 colon): 0.342 µM
TGI (HCC-2998 colon): 2.08 µM
GI50 (MALME-3M melanoma): 0.441 µM
TGI (MALME-3M melanoma): 2.04 µM
GI50 (MCF7 breast): 0.283 µM
TGI (MCF7 breast): 2.43 µM
GI50 (NCI-H460 lung): 0.152 µM
TGI (NCI-H460 lung): 1.43 µM
GI50 (OVCAR-3 ovarian): 0.547 µM
TGI (OVCAR-3 ovarian): 2.63 µM
GI50 (SK-MEL-28 melanoma): 0.586 µM
TGI (SK-MEL-28 melanoma): 2.81 µM
GI50 (U251 CNS): 0.311 µM
TGI (U251 CNS): 2.15 µM

Cc1nc2cccc(NCc3ccc(C(=O)NO)cc3)c2c(=O)n1-c1ccccc1
GI50 (ACHN renal): 1.62 µM
TGI (ACHN renal): 3.33 µM
GI50 (COLO 205 colon): 1.87 µM
TGI (COLO 205 colon): 3.97 µM
GI50 (EKVX NSCLC): 2.08 µM
TGI (EKVX NSCLC): 4.9 µM
GI50 (HCC-2998 colon): 1.81 µM
TGI (HCC-2998 colon): 3.27 µM
GI50 (MALME-3M melanoma): 1.48 µM
TGI (MALME-3M melanoma): 3.26 µM
GI50 (MCF7 breast): 2.89 µM
TGI (MCF7 breast): 38.9 µM
GI50 (NCI-H460 lung): 2.21 µM
TGI (NCI-H460 lung): 10.5 µM
GI50 (OVCAR-3 ovarian): 2.16 µM
TGI (OVCAR-3 ovarian): 4.9 µM
GI50 (SK-MEL-28 melanoma): 1.97 µM
TGI (SK-MEL-28 melanoma): 3.92 µM
GI50 (U251 CNS): 1.56 µM
TGI (U251 CNS): 3.04 µM

COC(=O)Nc1nc2ccccc2c(=O)[nH]1
TGI (ACHN renal): > 100 µM
TGI (COLO 205 colon): > 100 µM
TGI (EKVX NSCLC): > 100 µM
TGI (HCC-2998 colon): > 100 µM
TGI (MALME-3M melanoma): > 100 µM
TGI (MCF7 breast): > 100 µM
TGI (NCI-H460 lung): > 100 µM
TGI (OVCAR-3 ovarian): > 100 µM
TGI (SK-MEL-28 melanoma): > 100 µM
TGI (U251 CNS): > 100 µM

CC1=Cc2cc3[n-]c(cc4nc(cc5[n-]c(cc1n2)cc5C)C(C)=C4CCC(=O)O)c(CCC(=O)O)c3C.[Pd+2]
GI50 (ACHN renal): 6.31 µM
TGI (ACHN renal): 16.6 µM
GI50 (COLO 205 colon): 16.8 µM
TGI (COLO 205 colon): 41.6 µM
GI50 (EKVX NSCLC): > 28.9 µM
TGI (EKVX NSCLC): > 54.6 µM
GI50 (HCC-2998 colon): 10.2 µM
TGI (HCC-2998 colon): 28.8 µM
GI50 (MALME-3M melanoma): 10.5 µM
TGI (MALME-3M melanoma): 38.5 µM
GI50 (MCF7 breast): > 100 µM
TGI (MCF7 breast): > 100 µM
GI50 (NCI-H460 lung): 33.5 µM
TGI (NCI-H460 lung): 59.2 µM
GI50 (OVCAR-3 ovarian): 7.51 µM
TGI (OVCAR-3 ovarian): 27.1 µM
GI50 (SK-MEL-28 melanoma): 3.06 µM
TGI (SK-MEL-28 melanoma): 12.7 µM
GI50 (U251 CNS): 2.56 µM
TGI (U251 CNS): 8.24 µM
